Patent publication US20250282759A1, “POLYMORPHIC AND SALT FORMS OF THE AUTOTAXIN INHIBITOR CUDETAXESTAT” (Sabre Therapeutics LLC, priority 2022, published 2025)
Entries after “also recorded” stand apart in the source; their conditions may differ.

What was measured:
Format in all cases: physicochemical
[1] = Physical and chemical stability under 25° C./60% RH and 40° C./75% RH; settings: for degradation and/or form change: 25° C./60% RH and 40° C./75% RH, one week; for Stability results (Open for 1 week) Form change: XRPD; for Initial Purity (area %): before storage
Experimental: Stability measurements were analyzed with a Waters H-Class ultra-performance liquid chromatography (UPLC) system using the conditions and parameters listed below.
Approximately 20 mg of a solid sample of each crystalline form was added to a HPLC vial (open dish) and then stored under 25° C./60% RH or 40° C./75% RH. After one week, the samples were removed from the test conditions and analyzed by HPLC and XRPD to assess chemical and physical stability, respectively.

[2] = Dynamic Vapor Sorption (DVS); settings: for moisture uptake / hygroscopicity: 25° C./80% RH; for hygroscopicity: DVS
Experimental: Dynamic Vapor Sorption (DVS) analysis was conducted using a SMS (Surface Measurement Systems) DVS Intrinsic analyzer using the parameters listed below. [table]

[3] = Competitive slurry of Form A and Form C of Compound 1; settings: 2 days
Source text: The obtained solids were isolated for XRPD analysis.

[4] = Form E exposed to ambient condition; settings: 5 hours

| Compound | degradation and/or form change [1] | Stability results (Open for 1 week) Appearance ([1]; 25° C./60% RH) | Stability results (Open for 1 week) Purity (area %) ([1]; 25° C./60% RH) | Stability results (Open for 1 week) Form change ([1]; 25° C./60% RH) | Stability results (Open for 1 week) Appearance ([1]; 40° C./75% RH) | Stability results (Open for 1 week) Purity (area %) ([1]; 40° C./75% RH) | Stability results (Open for 1 week) Form change ([1]; 40° C./75% RH) | Initial Purity (area %) [1] [area %] | moisture uptake [2] [%] | hygroscopicity [2] | hygroscopicity ([2]; listed as crystalline Form 1) | form change after DVS test ([2]; after DVS test) | XRPD Result ([3]; Acetone, water activity 0.0, room temperature) | XRPD Result ([3]; Acetone/H2O (605:395), water activity 0.8, room temperature) | XRPD Result ([3]; Acetone/H2O (858:142), water activity 0.6, room temperature) | XRPD Result ([3]; Acetone/H2O (950:50), water activity 0.4, room temperature) | XRPD Result ([3]; Acetone/H2O (986:14), water activity 0.2, room temperature) | XRPD Result ([3]; H2O, water activity 1.0, room temperature) | form transfer on exposure to ambient condition [4] |
| --- | --- | --- | --- | --- | --- | --- | --- | --- | --- | --- | --- | --- | --- | --- | --- | --- | --- | --- | --- |
| CCCn1cc(-n2c(Cl)c(Sc3cccc(C(=O)O)c3F)c3ccc(Cl)c(F)c32)cn1 [Form 1 of Compound 1-A] | no significant degradation and/or form change | No | 99.73 | No | No | 99.73 | No | 99.79 | 0.32 | slightly hygroscopic | slightly hygroscopic; also recorded: non-hygroscopic |  |  |  |  |  |  |  |  |
| CCCn1cc(-n2c(Cl)c(Sc3cccc(C(=O)O)c3F)c3ccc(Cl)c(F)c32)cn1 [Form 3 of Compound 1-B] | no significant degradation and/or form change | No | 99.72 | No | No | 99.73 | No | 99.77 | 0.1 | non-hygroscopic |  | No form change |  |  |  |  |  |  |  |
| CCCn1cc(-n2c(Cl)c(Sc3cccc(C(=O)O)c3F)c3ccc(Cl)c(F)c32)cn1 [Form A + Form C] |  |  |  |  |  |  |  |  |  |  |  |  | Form C | Form A | Form A | Form C | Form C | Form A |  |
| CCCn1cc(-n2c(Cl)c(Sc3cccc(C(=O)O)c3F)c3ccc(Cl)c(F)c32)cn1 [Form A] | no significant degradation and/or form change | No | 99.82 | No | No | 99.75 | No | 99.78 |  |  |  |  |  |  |  |  |  |  |  |
| CCCn1cc(-n2c(Cl)c(Sc3cccc(C(=O)O)c3F)c3ccc(Cl)c(F)c32)cn1 [Form E] |  |  |  |  |  |  |  |  |  |  |  |  |  |  |  |  |  |  | transferred back to Form A; also recorded: Freeform Type E transferred to freeform Type A after |
